Among the data in paper PMC10258898, “Discovery of Novel Hydroxyimine-Tethered Benzenesulfonamides as Potential Human Carbonic Anhydrase IX/XII Inhibitors” (ACS Medicinal Chemistry Letters, 2023) are Ki and melting point values, retold here.

One series deals with hCA IX (Homo sapiens, UniProt Q16790). As to the kind of experiment: Stopped-flow CO2 hydrase assay, hCA IX inhibition.
A further series deals with hCA XII (Homo sapiens, UniProt O43570). As to the kind of experiment: Stopped-flow CO2 hydrase assay, hCA XII inhibition. The following applies: read-out: Ki (nM) hCA XII, mean from 3 different assays, errors ±5–10%.
[1] abbreviates: read-out: Ki (nM) hCA IX, mean from 3 different assays, errors ±5–10%, stopped-flow CO2 hydrase assay.

Read-outs that look alike come from different tables or passages of the source.

A word on the Ki: it is a measure of affinity in units of concentration, obtained from inhibition or displacement. By melting point is commonly meant the temperature of the solid-liquid transition.

hCA XII, sequence (O43570 25-354): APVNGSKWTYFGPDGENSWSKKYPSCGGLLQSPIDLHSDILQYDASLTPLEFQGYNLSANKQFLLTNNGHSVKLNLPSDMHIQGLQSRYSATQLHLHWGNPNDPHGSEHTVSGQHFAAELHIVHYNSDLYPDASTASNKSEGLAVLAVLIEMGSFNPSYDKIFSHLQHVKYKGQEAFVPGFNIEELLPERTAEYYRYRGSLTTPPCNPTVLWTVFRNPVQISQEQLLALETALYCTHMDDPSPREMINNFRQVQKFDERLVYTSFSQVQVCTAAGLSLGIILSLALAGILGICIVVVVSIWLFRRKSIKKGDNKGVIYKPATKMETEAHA
Protocol for hCA IX: (§1) as indicator, working at the absorbance maximum of 557 nm, with 20 mM Hepes (pH 7.5) as
(§2) buffer, and 20 mM Na2SO4 (for maintaining constant the ionic strength), following the initial
(§3) have been used for determining the initial velocity. The uncatalyzed rates were determined in
(§4) the same manner and subtracted from the total observed rates. Stock solutions of inhibitor
(§5) (0.1 mM) were prepared in distilled−deionized water and dilutions up to 0.01 nM were done
(§6) thereafter with the assay buffer. Inhibitor and enzyme solutions were preincubated together for 15 min at room temperature prior to assay, in order to allow for the formation of the E−I complex. The inhibition constants were subsequently obtained by nonlinear least-squares
(§7) methods using PRISM 3 and the Cheng−Prusoff equation, as reported earlier, and represent
(§8) the mean from at least three different determinations. All CA isofoms were recombinant ones
(§9) obtained in-house as reported earlier2,3.
Protocol for hCA XII: as §1, §2, §3, §4, §5, §6, §7, §8, §9

Turning to `NS(=O)(=O)c1ccc(N2CCN(/C(=N/O)c3ccncc3)CC2)cc1` [Compound 27], the melting point was in the range of 310 to 311 °C. Also, at hCA IX (setting [1]), the Ki amounted to 110 nM.
For `NS(=O)(=O)c1ccc(N2CCN(/C(=N/O)c3ccc(O)cc3)CC2)cc1` [Compound 28], the melting point was 320 to 321 °C. The inhibition constant (Ki) at hCA IX (setting [1]) is 1180 nM.
In the case of `NS(=O)(=O)c1ccc(N2CCN(/C(=N/O)c3ccccc3)CC2)cc1` [Compound 29], at hCA IX (setting [1]), the Ki was found to be 121 nM.
For the compound `NS(=O)(=O)c1ccc(N2CCN(C(=NO)c3ccc(Cl)cc3)CC2)cc1` [Compound 30], the melting point came to 321 °C. The Ki on hCA IX was found to be 43 nM.
Turning to `COc1ccc(/C(=N\O)N2CCN(c3ccc(S(N)(=O)=O)cc3)CC2)cc1` [Compound 31], the melting point fell in the range of 310 to 311 °C. On hCA IX (setting [1]), the inhibitory constant (Ki) worked out at 739 nM.
With `NS(=O)(=O)c1ccc(N2CCN(/C(=N/O)c3ccc([N+](=O)[O-])cc3)CC2)cc1` [Compound 32], the melting point fell in the range of 302 to 303 °C. The Ki on hCA IX (setting [1]) was found to be 912 nM. For the same compound, at hCA XII, the Ki is more than 10000 nM.
In turn, `NS(=O)(=O)c1ccc(N2CCN(/C(=N/O)c3ccc(F)cc3)CC2)cc1` [Compound 33] returned a melting point of 263 °C. The Ki on hCA IX (setting [1]) is 1340 nM.
As to `Cc1ccc(/C(=N\O)N2CCN(c3ccc(S(N)(=O)=O)cc3)CC2)cc1` [Compound 34], the melting point is 263 to 264 °C. The inhibition constant (Ki) on hCA IX (setting [1]) was more than 10000 nM.
